How the values were obtained:
[1] = molecular target: T1, adenosine kinase of T. b. rhodesiense (TbrAK) (Trypanosoma brucei rhodesiense, UniProt Q584S0); test: Thermal stability assay (CD spectroscopy) regarding TbrAK; format: binding
T1 sequence (Q584S0 1-345): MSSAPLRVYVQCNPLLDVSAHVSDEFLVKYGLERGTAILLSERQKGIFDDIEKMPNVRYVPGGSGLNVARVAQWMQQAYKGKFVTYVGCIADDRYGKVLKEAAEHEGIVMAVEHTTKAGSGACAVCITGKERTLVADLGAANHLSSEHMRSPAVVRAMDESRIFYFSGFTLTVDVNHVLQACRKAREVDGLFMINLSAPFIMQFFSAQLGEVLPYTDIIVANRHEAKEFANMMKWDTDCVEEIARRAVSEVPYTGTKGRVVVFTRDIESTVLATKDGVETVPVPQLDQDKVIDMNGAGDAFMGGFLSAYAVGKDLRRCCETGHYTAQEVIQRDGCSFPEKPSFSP
Description: Thermal unfolding of TbrGAPDH and TbrAK was studied by circular dichroism (CD) spectroscopy at 220 nm within the temperature range of 20–90°C using a heating rate of 40°C/h.
TbrAK in buffer E1 (20 mM Hepes, 150 mM NaCl, pH 7.0) was used at 0.5 mg/ml (final concentration 13 µM). All measurements were done in a 0.5 mm cell and contained 0.1 % DMSO and 2.5 mM EDTA to prevent enzyme activity. Thermal stability was analyzed in presence of 500 µM substrate to record the maximum stability limit, whereas compounds 1 to 5 were used at a concentration of 50 µM, being the highest concentration achievable for compound 2, to allow comparison of all compounds at the same concentration. For evaluation of the CD spectra, the buffer spectrum was subtracted from the protein CD spectrum. All thermal unfolding curves were fitted to a two-state model that had been published recently. The mean of three independent experiments are reported. […]

[2] = molecular target: T1, adenosine kinase of T. b. rhodesiense (TbrAK); test: Radiometric assay for kinetic study of TbrAK; details: in presence of compound 1 (33.4 µM), 167 µM ATP
Description: Kinetic constants for adenosine phosphorylation by TbrAK were obtained by monitoring the conversion of [2-^3H]adenosine to [2-^3H]AMP. Reactions were executed at 37°C in a final volume of 30 µl containing 20 mM Hepes (pH 7.0), 50 mM NaCl, 167 µM ATP, 167 µM MgCl2, 0.34% BSA, and 0.34% DMSO. […] The concentration of [2-^3H]adenosine (0.1–12 µM) was chosen in consideration of Michaelis–Menten conditions for initial velocity measurements. The reaction was started by the addition of 1 ng (0.88 nM) TbrAK. The reactions were incubated and 5 µl aliquots were spotted on 5 mm diameter DE81-cellulose disks placed in a 96-well plate to stop the reaction. The disks were washed 3 times with 250 µl 5 mM ammonium formate, once with H2O, transferred to scintillation vials, and then soaked with 2 ml of a displacement solution (100 mM HCl, 200 mM KCl) and gently shaken for 1 minute to elute the phosphorylated products [9]. After adding 10 ml scintillation liquid, the samples were counted in scintillation counter. Km and Vmax with respect to adenosine and Ki for adenosine substrate-inhibition in absence and presence of compound 1 were determined by non-linear fit of the data to the substrate-inhibition model described elsewhere [10].

[3] = molecular target: T1, adenosine kinase of T. b. rhodesiense (TbrAK); test: HPLC activity assay for TbrAK; format: biochemical
Description: TbrAK catalyzes the ATP-dependent phosphorylation of the 5′-hydroxyl moiety of adenosine to form AMP and ADP. The activity assay was based on HPLC separation of substrate and products (adenosine, AMP, ADP, and ATP). The mobile phase consisted of 35 mM KH2PO4, 6 mM tetrabutylammonium hydrogensulfate, (pH 7.0, adjusted with KOH), 125 mM EDTA, and 1% (v/v) acetonitrile. The separation was performed isocratically at a flow-rate of 1.5 ml/min and monitored at 254 nm. The standard reaction in 75 µl total volume containing 0.5 mM ATP, 0.5 mM adenosine, 0.5 mM MgCl2, 1% DMSO in buffer E1 (20 mM Hepes, 150 mM NaCl, pH 7.0) was started with the addition of 2 µg TbrAK (final concentration 0.7 µM) and incubated at 37°C for 10 min while shaking vigorously (600 rpm). […] All reactions were stopped by adding 75 µl mobile phase. 50 µl of the sample volume were injected for analysis and the resulting ADP/ATP ratios were calculated and used as a measure of activity. For comparative reasons the activity recorded in absence of compound was set to 100%. The mean of three independent measurements are reported.

c1ccc(Oc2ccc(-c3cc(N4CCOCC4)[nH]n3)cc2)cc1 [compound 1, 4-[5-(4-phenoxyphenyl)-2H-pyrazol-3-yl]morpholine]
Tm of TbrAK ([1]; compound at 50 µM, 13 µM TbrAK): 47.9±0.1 °C
ΔTm at 50 µM ([1]; read-out: ΔTm of TbrAK): 4.8 °C
Ki adenosine (substrate-inhibition) [2]: 78.4 ± 2.2 µM
Vmax [2]: 14.20 ± 0.14 nM/min
kcat [2]: 0.27 ± 0.01 s⁻¹
activity at 50 µM ([3]; 50 µM compound, 0.7 µM TbrAK, 10 min, 37°C, ADP/ATP ratio, read-out: TbrAK activity in presence of compound (% of activity without compound)): 245 ± 3%
EC50 ([3]; 0.5 mM ATP, 0.5 mM adenosine, 0.7 µM TbrAK, read-out: EC50 of TbrAK activation (HPLC assay)): 38.9 ± 0.9 µM
fold induction at 50 µM ([3]; 10 min, pH 7, 50 µM compound, read-out: fold increase of TbrAK activity): 2.5
concentration dependence of the activation effect ([3]; range 1–750 µM, up to solubility limit): concentration dependent
